The test system of assay [1] is commercial mixed strain starter culture of Lactococcus lactis. The assay can be described thus: Biomass production in pH controlled aerobic batch in complex media with haemin. The assay is classed as cell-based. The following applies: for Yield (OD600nm): haemin, aerobic pH controlled batch. The procedure: A commercial mixed strain starter culture of Lactococcus lactis was applied in this Example. The cultivations were performed on complex media containing hydrolysed skimmed milk powder, yeast extract, essential vitamins and minerals and either lactose or maltose as carbon source. Furthermore, the media were supplemented with haemin. Medium 1 and Medium 2 were optimised with respect to the cellular yield on respectively lactose and maltose as carbon source. All media were adjusted to an initial pH of 6.5.
The cultivations were inoculated with concentrated cell suspensions of the L. lactis culture. Air was sparged through the cultivation broths at a rate sufficient to maintain the dissolved oxygen concentration above 50% of saturation level. The cultivations were conducted at a temperature of 30° C. The cultures were allowed to acidify to pH 6.2, and subsequently maintained at pH 6.2 by controlled addition of 13.4 N NH4OH. Samples were collected throughout the cultivations for measurements of the optical density using a Hitachi U-1100 Spectrophotometer at […].

For assay [2], the system named is phospho-β-D-galactosidase in FHCY-1 cells. The assay can be described thus: Phospho-beta-galactosidase activity (ONPG-P substrate) as lac operon expression. The assay is classed as cell-based, Lactococcus lactis subsp. lactis. The note with it: for Specific activity of phospho-β-D-galactosidase: FHCY-1 cells grown in M17 on the carbon/energy source, average of two determinations. The procedure:
The expression of the lac operon in the cells grown on the various sugars was also tested by measuring the activity of the enzyme phospho-beta-galactosidase. Samples were taken from the cultures in FIG. 2 and processed as described previously (Jensen and Hammer, 1998). Subsequently, the activity of phospho-beta-galactosidase was determined as the standard determination of beta-galactosidase, except that o-nitrophenyl-beta-D-galactopyranoside 6-phosphate (ONPG-P) was used as the chromogenic substrate instead of o-nitrophenyl-beta-D-galactopyranoside (ONPG).

Assay [3] has as its system Lactococcus lactis subsp. cremoris PJ4662. Nature of the assay: Biomass yield (OD600) in aerobic batch culture in defined SA medium. The assay is classed as cell-based. The following applies: for Increase of yield of biomass relative to MSA / Increase of yield of biomass relative to GSA: PJ4662, aerobic; for Increase of yield of biomass relative to MSA / Biomass: SA medium with 0.1% maltose; for Increase of yield of biomass relative to GSA: SA medium with growth limiting glucose; for Biomass: PJ4662, batch, maltose alone = 100. On the procedure: Wild type L. lactis subsp. cremoris PJ4662, a derivative of the strain MG1363 containing the pAK80 plasmid (Israelsen et al., 1995) was grown aerobically in defined SA medium (Jensen and Hammer, 1993) supplemented with a growth limiting concentration of glucose (GSA), and in GSA medium further supplemented with haemin (GSA+H), heamin+lipoic acid (GSA+H+L) and: lipoic acid alone (GSA+L). The biomass yield was estimated by measuring the optical density at 600 nm (OD600). The yield of biomass increased by about 12% relative to the yield obtained with GSA when the medium was supplemented with haemin, by about 25% using the haemin+lipoic acid supplement and by about 7% using lipoic acid alone.
L. lactis subsp. cremoris PJ4662 was grown aerobically in defined SA medium (Jensen and Hammer, 1993) supplemented with a growth-limiting concentration of 0.1% maltose (MSA), and in MSA medium further supplemented with haemin (MSA+H), haemin+lipoic acid (MSA+H+L) and lipoic acid alone (MSA+L). The biomass yield was estimated by measuring the optical density at 600 nm (OD600), see Table 1.2 below.
It was also tested whether the extent of aeration affected the biomass yield and the amount of ATP produced by oxidative phosphorylation by performing an experiment (Table 1.3) using more vigorous aeration as compared to the experiment illustrated in Table 1.2.
Wild type L. lactis subsp. cremoris PJ4662, a derivative of the strain MG1363 containing the pAK80 plasmid (Israelsen et al., 1995) was grown aerobically in defined SA medium (Jensen and Hammer, 1993) supplemented with a growth limiting concentration of galactose and lipoic acid (GaSAL), and in GaSAL medium further supplemented with haemin+lipoic acid (GaSALH). The biomass yield was estimated by measuring the optical density at 600 nm (OD600). The yield of biomass increased by 30% relative to the yield obtained with GaSAL when the medium was supplemented with haemin (GaSALH). A chemostat experiment was also performed with cells grown on galactose. Here the biomass increased by 75% compared to the biomass obtained in GaSAL medium.

Assay [4] has as its system Lactococcus lactis subsp lactis FHCY-1. Nature of the assay: Growth in M17 batch cultures supplemented with different sugars. The assay is classed as cell-based. The following applies: FHCY-1, M17 medium. On the procedure: Therefore, the growth of the starter culture strain, FHCY-1, was tested on various sugars.
A further assay deals with atp mutant strain PJ4699. The assay can be described thus: Biomass yield (OD600) of atp mutant strain with lower H+-ATPase expression. The assay is classed as cell-based, Lactococcus lactis. The note with it: PJ4699, no nisin. From the text:
In order to investigate whether or not the surplus of ATP that was found in the cultures cultivated in maltose medium (with haemin and lipoic acid) is due to oxidative phosphorylation it was decided to compare the biomass yield of a wild type strain and a strain which, relative to the wild type strain, has a lower expression of the H^+-ATPase complex. For that purpose a mutant strain of the MG1363 strain, PJ4699, was used. In this mutant strain the native promoter of the chromosomal atp operon has been replaced with the nisA promoter (de Ruyter et al., 1996).
This mutant therefore permitted an experiment to be performed where the biomass yield of the wild type strain and the H^+-ATPase mutant which had lower expression of the H^+-ATPase was compared. If ATP is synthesised by the H^+-ATPase complex, then the biomass yield on maltose should be lower in the mutant cells having lower activity of this enzyme, under conditions where oxidative phosphorylation is observed.

Assay [5] concerns Lactococcus lactis subsp. cremoris. The assay can be described thus: Intracellular [ATP]/[ADP] ratio in exponentially growing aerobic cultures. The following applies: MSA+L+H versus MSA+L. The assay is classed as cell-based. On the procedure: The intracellular concentrations of ATP and ADP was measured to test whether the addition of a porphyrin to a culture growing on a poor carbon/energy source would increase the [ATP]/[ADP] ratio as might be expected if the ATP synthase starts to produce ATP. Samples were taken from exponentially growing cultures of Lactococcus lactis subsp. cremoris at cell densities between 0.2 and 0.8 (OD600). The total intracellular metabolite content were extracted as described previously (Andersen et al., 2001) and the concentrations of ATP and ADP were determined as described in Jensen et al. (1 993).

The mark [6] stands for this setting: Medium 1 (optimised for growth on lactose).

Consider `OC[C@H]1O[C@@H](O[C@H]2[C@H](O)[C@@H](O)C(O)O[C@@H]2CO)[C@H](O)[C@@H](O)[C@H]1O` (stereo partly drawn) [Lactose, lactose], for which the “Yield (OD600nm)” value in assay [1] (setting [6]) came out at 48 OD600nm. For the same compound, in assay [2], the “Specific activity of phospho-β-D-galactosidase” value (“Specific activity” for short) is 149.5.
Turning to `O=C(O)CCCC[C@@H]1CCSS1` (racemic) [lipoic acid], in assay [3], the “Increase of yield of biomass relative to MSA” value was 48% and the “Increase of yield of biomass relative to GSA” value is on record as “about 7%”.
`OC[C@H]1O[C@H](O[C@H]2[C@H](O)[C@@H](O)[C@H](O)O[C@@H]2CO)[C@H](O)[C@@H](O)[C@@H]1O` [maltose]: the “Yield (OD600nm)” value in assay [1] (setting [6]) was determined as 60 OD600nm; in assay [1] (Medium 2 (optimised for growth on maltose)), 96 OD600nm. Moreover, the “Increase of final yield of biomass compared to the lactose culture” value in assay [1] (medium 1, haemin, aerobic) amounted to 25%. Also, the “Yield of biomass compared to optimised lactose medium” value in assay [1] (medium 2, haemin, aerobic) is “two-fold higher”. In addition, the “Specific activity” value in assay [2] was found to be 37.5. Further, the Biomass in assay [3] (moderate aeration) and in assay [3] (vigorous aeration) was 100% each time.
With `O=C[C@H](O)[C@@H](O)[C@@H](O)[C@H](O)CO` [Galactose, galactose], in assay [4], the “Reduction of growth compared to lactose” value is “approximately 20%”. Moreover, in assay [2] (FHCY-1 cells), the “Increase of phospho-β-D-galactosidase activity compared to lactose” value is 20%. For the same compound, the “Specific activity” value in assay [2] was 172.2.
haemin: the “Growth of the nisin-dependent atp mutant without nisin” value with atp mutant strain PJ4699 is reported as “capable of growth without nisin”. In assay [3], the “Increase of yield of biomass relative to MSA” value was determined as 33% and the “Increase of yield of biomass relative to GSA” value was “about 12%”. Further, the “Growth rate increase of haemin culture versus culture without haemin” value in assay [5] stood at 30%.
